Assay results: patent US9321772B2, “Substituted pyrazolo[3,4-D]pyrimidines and uses thereof” (The Regents of the University of California, priority 2011, dated 2016)

Test system: 266 kinases (approximately one-half of the human kinome)
Experiment: Kinome-wide in vitro kinase profiling
Format: biochemical
Conditions: 1 μM; among AD36, AD57, AD58
Text: (§1) FIG. 6A-6C Select Screen Inhibition Data for Tyrosine Kinases. Percent inhibition of kinase activity. Dark gray is greater than 80% inhibition, white is 40-80% inhibition, and light gray is less than 40% inhibition. Hashed boxes indicate no useful data was obtained. Full assay conditions described at www.invitrogen.com/kinaseprofiling.
as §1, with “7A-7F” for “6A-6C”, “Serine/Threonine” for “Tyrosine”
as §1, with “8” for “6A-6C”, “Lipid” for “Tyrosine”
Using in vitro kinase assays we tested AD57, AD36, and AD58 at 1 μM for activity against approximately one-half of the human kinome (FIG. 1E): 165 Ser/Thr kinases, 91 Tyr kinases, and 10 PI kinases were assayed, totaling 266 kinases (244 distinct kinases plus 22 mutant isoforms; see FIG. 6A-6C, FIG. 7A-7F, and FIG. 8 for measured inhibition values).

CC(C)n1nc(-c2ccc(NC(=O)Nc3cccc(C(F)(F)F)c3)cc2)c2c(N)ncnc21 [AD57]
number of kinases inhibited at a cutoff of greater than 80% inhibition: most
